Results from patent US20160146815A1, “METHOD FOR SCREEING CANCER METASTASIS INHIBITOR USING CULTURE OF CELLS OR SPHEROIDICALLY AGGREGATED CELLS IN WHICH LYSYL-TRNA SYNTHETASE IS REGULATED TO BE EXPRESSED OR UNEXPRESSED” (Medicinal Bioconvergence Research Center, priority 2013, published 2016).
Entries after “also recorded” stand apart in the source; their conditions may differ.

Legend:
HCT116 cells = test: CK14 immunostaining of spheroids in three-dimensional collagen gel; format: cell-based, human; details: U0126 (50 mM) or YH16899 (50 mM), a day, KRS expressing cells
Excerpt: In a three-dimensional collagen gel environment, the dissemination of cells was KRS expression-dependent, and the expressions of epithelial markers involved in cell-cell contact were reduced in the KRS knock-out cell lines. However in the KRS knock-out cell lines, the cell scattering was not observed in a two-dimensional culture environment and the dissemination was not observed in a three-dimensional collagen gel environment. So, in order to confirm whether or not the dissemination of cells from the spheroidically aggregated cells of KRS knock-out cell line in a three-dimensional collagen gel environment was attributed to the expression of epithelial marker, the cell line was cultured in a three-dimensional collagen gel environment for 24 hours. When the dissemination was observed, CK14 staining was performed and the cells were observed under confocal microscope.
Particularly, the collagen gel containing cells were distributed in PDMS, which was treated with nothing for a day (FIG. 9A) or treated with U0126 (50 mM) or YH16899 (50 mM) (FIG. 9B). The collagen gel containing the cultured cells was fixed in 4% paraformaldehyde for 30 minutes, which was then treated with 30 mM glycine for 30 minutes. Then, permeabilization was induced by using 0.5% triton X-100 for 30 minutes, followed by blocking with 3% BSA solution for 2 hours. […]

HCT116 parental cells [1] = test: Western blotting of signaling factors in spheroidically aggregated cells in three-dimensional collagen gel; format: cell-based, human; details: for phosphorylation of FAK / expression of E-cadherin / expression of paxillin / expression of β-catenin / phosphorylation of ERKs / phosphorylation of paxillin: 50 and 100 μM, three-dimensional collagen gel, Western blotting; for phosphorylation of FAK: a day (24 hours); for expression of E-cadherin / expression of paxillin / expression of β-catenin / phosphorylation of ERKs / phosphorylation of paxillin: a day
Protocol: Whole cell extract was collected, followed by Western blotting by the same manner as described in Example <7-2>. At this time, the primary antibodies of pY397FAK, FAK, p-ERKs, ERKs, pY118paxillin, paxillin, E-cadherin, β-catenin, KRS, α-tubulin, pAkt1/2/3, and caspase 3 were used.
SDS, Na3O4V, and protease inhibitor cocktails (GenDepot) were added to lysis buffer, followed by reaction at 4° C. for at least 1 hour. Centrifugation was performed at 4° C., at 13000 rpm, for 30 minutes. The supernatant was transferred into a new microcentrifuge tube. 4×SDS-PAGE sample buffer was added thereto, followed by boiling at 100° C. for 5 minutes. The extract was quantified by Western blotting using α-tubulin antibody (Sigma). Other protein expressions and phosphorylations were also measured by Western blotting.

[2] = system: colorectal cancer cell line SW620; test: Dissemination of cells from SW620 spheroids in three-dimensional collagen gel (time-lapse imaging); format: cell-based, human; details: SW620 parental cells treated with U0126 or YH16899
Excerpt: Various colorectal cancer cell lines (SW620, HCT15, SNU977, KM12SM, and SNU-05) were stably transfected with shKRS to suppress KRS expression (clones #2 and #5). Then, the dissemination was observed under time-lapse microscope (FIG. 17A) or the signaling activity was investigated after the treatment of YH16899 (FIG. 17B).
Particularly, the colorectal cancer cell lines SW620, HCT15, SNU977, KM12SM, and SNU-05 (Korean Cell Line Bank, Cancer Research Institute, Seoul National University) were distributed in a three-dimensional collagen gel environment as spheroids, followed by time-lapse imaging 6 hours later or followed by normal culture in a two-dimensional environment supplemented with 10% serum for 2 days. Then, lysis buffer (50 mM Tris-HCl, pH7.4, 1% NP-40, 0.25% sodium deoxycholate, 150 mM NaCl, 1 mM EDTA) was added thereto, followed by lysis to obtain cell lysate. The protein in the obtained cell lysate was quantified, followed by Western blotting with the labeled factors.

[3] = system: HCT116 spheroidically aggregated cells; test: Dissemination of cells from spheroidically aggregated cells in three-dimensional collagen gel (time-lapse microscope); format: cell-based, human; details: HCT116 parental cells, U0126 50 μM, three-dimensional collagen gel, real-time live imaging
Protocol: Particularly, 2.5 mg/Ml of collagen containing cells was loaded in the magnetic 4-well chamber (Live Cell Instrument, Korea) for the culture system of time-lapse microscope, and the collagen was hardened in a 37° C. incubator for 30 minutes. When the collagen was fully solidified, PRMI-1640 supplemented with 10% FBS was added thereto. The magnetic chamber containing three-dimensional collagen gel and its corresponding adaptor were placed on the time-lapse microscope, followed by setting the multi-position. […] 5% CO2 incubator. Culture medium was added thereto every 6 hours in order for the collagen not to be dried. At this time, it is important to maintain the focus not to be changed. […]
As confirmed in the result of Example 14, when the HCT116 parental cells were treated with TGFβ1, the dissemination of cells from the spheroidically aggregated cells and migration thereof were observed. When the KRS knock-out cell line was treated with TGFβ1, the dissemination of cells was not observed. […] When the extracellular signal-regulated kinase (ERKs) inhibitor U0126 was treated to the HCT116 parental cells, it was presumed to be negative effect on the dissemination and migration of cells. To verify above, 50 μM of U0126, the ERKs inhibitor, was treated to the cell line, followed by observation of cell dissemination and migration by real-time live imaging of the spheroidically aggregated cells.

HCT116 parental cells [4] = details: U0126 50 or 100 μM, 24 hours; vs control not treated
Protocol: Particularly, the HCT116 parental cells cultured in a three-dimensional collagen gel environment were either not treated with U0126 or treated with U0126, the ERKs inhibitor, at the concentration of 50 or 100 μM, followed by culture for 24 hours.

HCT116 spheroid cells = test: Immunostaining of p-ERKs and paxillin in spheroids in three-dimensional collagen gel (confocal microscope); format: cell-based, human; details: U0126 (50 mM) or YH16899 (50 mM), a day
Protocol: Particularly, collagen type I was distributed in PDMS, which was treated with nothing for a day (FIG. 6A and FIG. 6B) or treated with U0126 (50 mM) or YH16899 (50 mM) (FIG. 6C and FIG. 6D). Collagen gel containing the cultured cells was fixed in 4% formaldehyde for 30 minutes, followed by the treatment with 30 mM glycine for 30 minutes. Permeabilization was induced by using 0.5% triton X-100 for 30 minutes, followed by blocking with 3% BSA solution for 2 hours. The unlabeled p-ERKs (cell signaling) and paxillin (BD bioscience) antibodies were treated thereto at 4° C. at least 16˜18 hours, followed by the treatment with the secondary antibody for at least 4 hours at room temperature. At last, DAPI (4′,6-diamidino-2-phenylindole) solution was treated thereto in order to stain nuclei. The stained cells were observed under confocal microscope.

With `N#CC(=C(/N)Sc1ccccc1N)/C(C#N)=C(\N)Sc1ccccc1N` [U0126] the CK14 expression (HCT116 cells) was “significantly suppressed”, the CK14 expression (HCT116 cells; listed as U1026) was “low and very low” and the “phosphorylation of FAK” value (HCT116 parental cells [1]) was “suppressed”. For the same molecule, the “phosphorylation of FAK” value (HCT116 parental cells [1]; listed as ERKs inhibitor) was “significantly reduced”, the “expression of E-cadherin” value (HCT116 parental cells [1]) was “reduced” and the expression of paxillin (HCT116 parental cells [1]) was “reduced”. The “expression of β-catenin” value (HCT116 parental cells [1]) was “reduced”, the “phosphorylation of ERKs” value (HCT116 parental cells [1]) was “suppressed” and the phosphorylation of paxillin (HCT116 parental cells [1]) was “reduced; also recorded: suppressed”. The “expression of E-cadherin” value (HCT116 parental cells [1]; listed as ERKs inhibitor) was “significantly reduced”, the expression of paxillin (HCT116 parental cells [1]; listed as ERKs inhibitor) was “significantly reduced” and the phosphorylation of paxillin (HCT116 parental cells [1]; listed as ERKs inhibitor) was “significantly reduced”. The “expression of E-cadherin” value (HCT116 parental cells [1]; listed as U1026) was “decreased”, the expression of paxillin (HCT116 parental cells [1]; listed as U1026) was “inhibited” and the “expression of β-catenin” value (HCT116 parental cells [1]; listed as U1026) was “decreased”. For the same molecule, the “phosphorylation of ERKs” value (HCT116 parental cells [1]; listed as U1026) was “inhibited”, the phosphorylation of paxillin (HCT116 parental cells [1]; listed as U1026) was “inhibited” and the “expression of the epithelial marker” value (HCT116 parental cells [1]; HCT116 cell line in three-dimensional collagen gel, FIG. 18 legend) was “increased”. For the same molecule, the “dissemination of cells from the three-dimensional spheroid cells” value [2] was “not observed”, the “dissemination and migration of cells from the spheroid” value (from here on “dissemination and migration of cells”) [3] was “suppression” and the “dissemination and migration of cells” value ([3]; listed as ERKs inhibitor) was “did not cause cell migration and dissemination; also recorded: not induced”. The “dissemination and migration of cells” value ([3]; listed as ERKs inhibitors) was “inhibited”, the “dissemination and migration of cells” value ([3]; listed as U1026) was “inhibited” and the “expression level of E-cadherin mRNA” value (HCT116 parental cells [4]) was “significantly reduced”. For the same molecule, the “ERKs phosphorylation level (p-ERKs immunostaining)” value (HCT116 spheroid cells) was “inhibited significantly; also recorded: very low” and the “paxillin immunostaining level (paxillin expression)” value (HCT116 spheroid cells) was “inhibited significantly; also recorded: significantly reduced”.
